The text below walks through data of patent US20030109702A1, “Pyrazolyl benzyl ethers” (priority 1999, published 2003).

System in the first data set: not listed separately
Kind of data set: physchem.
Conditions: not given
Broadly, the chromatographic logP is a lipophilicity value derived from retention on a column. High values mean a more lipophilic compound, low ones a more hydrophilic compound. The compound `CON=C(C1=NOCCO1)c1ccccc1COc1ccn(-c2ccc(Br)cc2)n1` [Example 3] showed a chromatographic logP of 3.67.
The same measure, in the same setting: next, `CON=C(C1=NOCCO1)c1ccccc1COc1ccn(CC2CCCCC2)n1` [Example 334]: 3.52; `CON=C(C1=NOCCO1)c1ccccc1COc1ccn(-c2ccccc2F)n1` [Example 20]: 3.19.
Consider `CON=C(C1=NOCCO1)c1ccccc1COc1ccn(-c2ccc(I)cc2)n1` [Example 46], for which the chromatographic logP is 3.84.
For the compound `CON=C(C1=NOCCO1)c1ccccc1COc1ccn(-c2ccc(OC)cc2)n1` [Example 39], the chromatographic logP was found to be 3.
On to `CON=C(C1=NOCCO1)c1ccccc1COc1ccn(-c2cc(C)ccc2C)n1` [Example 22], for which the chromatographic logP worked out at 3.52.
The compound `CON=C(C1=NOCCO1)c1ccccc1COc1ccn(-c2ccccc2Br)n1` [Example 2] showed a chromatographic logP of 3.21.
Regarding `CON=C(C1=NOCCO1)c1ccccc1COc1ccn(-c2ccc(C#N)cc2)n1` [Example 12], the chromatographic logP is 2.89.
Compound `CON=C(C1=NOCCO1)c1ccccc1COc1ccn(-c2ccc(Cl)c(Cl)c2)n1` [Example 6] showed a chromatographic logP of 4.02.
`CON=C(C1=NOCCO1)c1ccccc1COc1ccn(-c2ccccc2)n1` [Example 13] yielded a chromatographic logP of 3.06.
`CON=C(C1=NOCCO1)c1ccccc1COc1ccn(-c2ccc(C)cc2)n1` [Example 5] returned a chromatographic logP of 3.4.
Same read-out and setting: the result for `CON=C(C1=NOCCO1)c1ccccc1COc1ccn(-c2ccccc2Cl)n1` [Example 9] reads 3.2.
Turning to `CCc1ccc(-n2ccc(OCc3ccccc3C(=NOC)C3=NOCCO3)n2)cc1` [Example 42], the chromatographic logP is 3.76.
The compound `CON=C(C1=NOCCO1)c1ccccc1COc1ccn(-c2cccc(Br)c2)n1` [Example 10] displayed a chromatographic logP of 3.68.
Still for that read-out and setting: next, `CON=C(C1=NOCCO1)c1ccccc1COc1ccn(-c2cccc3ccccc23)n1` [Example 31]: 3.51.
On to `CON=C(C1=NOCCO1)c1ccccc1COc1ccn(-c2ccc(F)cc2F)n1` [Example 19], for which the chromatographic logP is 3.28.
As to `CON=C(C1=NOCCO1)c1ccccc1COc1ccn(-c2c(Cl)cccc2Cl)n1` [Example 17], the chromatographic logP was 4.08.
`CON=C(C1=NOCCO1)c1ccccc1COc1ccn(-c2cccc(C)c2C)n1` [Example 28] registered a chromatographic logP of 3.68.
The compound `CON=C(C1=NOCCO1)c1ccccc1COc1ccn(-c2ccc(F)cc2)n1` [Example 4] yielded a chromatographic logP of 3.15.
In turn, `CON=C(C1=NOCCO1)c1ccccc1COc1ccn(-c2ccc(C)c(C)c2)n1` [Example 29] came in with a chromatographic logP of 3.68.
The compound `CON=C(C1=NOCCO1)c1ccccc1COc1ccn(-c2ccc(C)cc2C)n1` [Example 25] came in with a chromatographic logP of 3.5.
Consider `CON=C(C1=NOCCO1)c1ccccc1COc1ccn(Cc2ccccc2)n1` [Example 35], for which the chromatographic logP is 2.79.
On the same count and under the same terms, the result for `CON=C(C1=NOCCO1)c1ccccc1COc1ccn(Cc2cccc(C)c2)n1` [Example 32] reads 3.11.
With `CCOc1ccccc1-n1ccc(OCc2ccccc2C(=NOC)C2=NOCCO2)n1` [Example 43], the chromatographic logP amounted to 3.43.
Compound `CCc1ccccc1-n1ccc(OCc2ccccc2C(=NOC)C2=NOCCO2)n1` [Example 26] showed a chromatographic logP of 3.47.
Same read-out and setting: the result for `CON=C(C1=NOCCO1)c1ccccc1COc1ccn(Cc2ccc(Cl)cc2)n1` [Example 36] reads 3.19; that for `CON=C(C1=NOCCO1)c1ccccc1COc1ccn(-c2cc(C)cc(C)c2)n1` [Example 30], 3.79.
For the compound `CON=C(C1=NOCCO1)c1ccccc1COc1ccn(Cc2ccc(C(C)(C)C)cc2)n1` [Example 33], the chromatographic logP came out at 3.97.
For the compound `CON=C(C1=NOCCO1)c1ccccc1COc1ccn(-c2c(Cl)cc(Cl)cc2Cl)n1` [Example 24], the chromatographic logP amounted to 3.74.
Compound `CON=C(C1=NOCCO1)c1ccccc1COc1ccn(-c2cccc(Cl)c2)n1` [Example 8] returned a chromatographic logP of 3.59.
For the compound `CON=C(C1=NOCCO1)c1ccccc1COc1ccn(-c2ccc(C(C)C)cc2)n1` [Example 16], the chromatographic logP was 4.08.
`CON=C(C1=NOCCO1)c1ccccc1COc1ccn(-c2ccc(Cl)cc2Cl)n1` [Example 14] registered a chromatographic logP of 3.78.
On to `CON=C(C1=NOCCO1)c1ccccc1COc1ccn(-c2cc(Cl)ccc2Cl)n1` [Example 27], for which the chromatographic logP is 3.74.
The compound `CON=C(C1=NOCCO1)c1ccccc1COc1ccn(-c2ccccc2OC)n1` [Example 48] returned a chromatographic logP of 2.87.
`CON=C(C1=NOCCO1)c1ccccc1COc1ccn(-c2cccc(Cl)c2Cl)n1` [Example 18] came in with a chromatographic logP of 3.59.
In turn, `CON=C(C1=NOCCO1)c1ccccc1COc1ccn(-c2cccc(F)c2)n1` [Example 21] had a chromatographic logP of 3.24.
The same measure, in the same setting: next, `C=CCn1ccc(OCc2ccccc2C(=NOC)C2=NOCCO2)n1` [Example 44]: 2.61.
Take `CON=C(C1=NOCCO1)c1ccccc1COc1ccn(-c2cc(Cl)cc(Cl)c2)n1` [Example 7]: the chromatographic logP worked out at 4.24.
Still for that read-out and setting: next, `CON=C(C1=NOCCO1)c1ccccc1COc1ccn(-c2ccc(C(C)(C)C)cc2)n1` [Example 15]: 4.33; `CON=C(C1=NOCCO1)c1ccccc1COc1ccn(-c2ccccc2C)n1` [Example 11]: 3.15.

A further data set deals with green peach aphid (Myzus persicae). Kind of data set: Myzus test. The note with it: broad bean seedlings dipped, concentration of active compound 1000 ppm. The format is in vivo. The procedure: [table] To produce a suitable preparation of active compound, 1 part by weight of active compound is mixed with the stated amount of solvent and the stated amount of emulsifier, and the concentrate is diluted with emulsifier-containing water to the desired concentrations. Broad bean seedlings (Vicia faba) infested by the green peach aphid (Myzus persicae) are dipped into a preparation of active compound of the desired concentration and placed into a dish made of plastic. After the desired period of time, the kill in % is determined. 100% means that all of the animals have been killed; 0% means that none of the animals have been killed.
Compound `CON=C(C1=NOCCO1)c1ccccc1COc1ccn(-c2ccc(Cl)cc2)n1` [Example 1, [2-({[1-(4-chlorophenyl)-1H-pyrazol-3-yl]oxy}methyl)phenyl](5,6-dihydro-1,4,2-dioxazin-3-yl)methanone O-methyl oxime] returned a kill rate of 90%.

For another data set, the system named is Meloidogyne incognita. Kind of data set: Meloidogyne test. It counts as in vivo. The note with it: lettuce in sand, concentration of active compound 20 ppm. The procedure:
[table] To produce a suitable preparation of active compound, 1 part by weight of active compound is mixed with the stated amounts of solvent and emulsifier, and the concentrate is diluted with water to the desired concentration. Containers are filled with sand, solution of active compound, Meloidogyne incognita egg/larvae suspension and lettuce seeds. The lettuce seeds germinate and the plants develop. On the roots, galls are formed. After the desired period of time, the nematicidal action is determined in % via the formation of galls. 100% means that no galls were found; 0% means that the number of galls on the treated plants corresponds to that on the untreated control.
In the case of `CON=C(C1=NOCCO1)c1ccccc1COc1ccn(-c2ccc(C#N)cc2)n1` [Example 12], the “kill rate (nematicidal action via the formation of galls)” value is recorded as 100%.
Same read-out and setting: the result for `CON=C(C1=NOCCO1)c1ccccc1COc1ccn(-c2ccc(Cl)cc2)n1` [Example 1, [2-({[1-(4-chlorophenyl)-1H-pyrazol-3-yl]oxy}methyl)phenyl](5,6-dihydro-1,4,2-dioxazin-3-yl)methanone O-methyl oxime] reads 100%.
